Measured values published in patent US20250084063A1 (Incyte Corporation, priority 2023, published 2025).
pIC50: −log10 of the molar value.

What was measured:
Format in all cases: cell-based
[1] = biological target: T1, MRGPRX2 (Homo sapiens, UniProt Q96LB1); experiment: MRGPRX2 FLIPR calcium mobilization assay; parameters: host or cells: CHO-K1; conditions: CHO-K1 cells stably expressing human MRGPRX2; Ca2+ release, agonist Cortistatin-14 at EC80
T1 sequence (Q96LB1 1-330): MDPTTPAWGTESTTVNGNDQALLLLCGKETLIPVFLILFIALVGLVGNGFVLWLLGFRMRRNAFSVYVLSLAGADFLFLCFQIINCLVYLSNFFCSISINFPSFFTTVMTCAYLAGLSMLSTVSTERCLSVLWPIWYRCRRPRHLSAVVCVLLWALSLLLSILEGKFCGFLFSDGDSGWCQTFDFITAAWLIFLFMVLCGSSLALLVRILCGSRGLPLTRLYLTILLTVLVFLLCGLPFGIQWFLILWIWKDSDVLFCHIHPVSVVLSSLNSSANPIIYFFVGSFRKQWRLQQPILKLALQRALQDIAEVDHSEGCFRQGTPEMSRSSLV
Experimental: Example A. MRGPRX2 FLIPR Calcium Mobilization Assay
Chinese hamster ovary (CHO-K1) cells stably expressing human MRGPRX2 were purchased from Genescript (Piscataway, NJ). The cells were maintained in culture medium (Ham's F-12K) containing 10% (v/v) FBS, 200 μg/mL Zeocin, 100 units/mL penicillin G and 100 μg/mL streptomycin (Life Technologies, Carlsbad, CA). For the assay, the cells were harvested and resuspended with culture medium without Zeocin before plating at 8000 cells per well in 20 μL in 384-well black clear bottom cell culture plates (VWR, Radnor, PA). After 24 h culture at 37° C. and 5% CO2, the cells were loaded with 20 μL/well of calcium dye (FLIPR Calcium 6 Assay Kit, Molecular Devices, San Jose, CA) diluted in loading buffer (1×Hank's Balanced Salt Solution (HBSS), 5 mM probenecid, 20 mM 4-(2-hydroxyethyl)-1-piperazineethanesulfonic acid (HEPES), pH 7.4, VWR, Radnor, PA) followed with 45 min incubation at 37° C. and 40 min at room temperature in the dark. Cells were then treated with the addition of 10 uL/well test compounds with a range of increasing concentrations diluted in the assay buffer (1×HBSS, 20 mM HEPES, pH 7.4, VWR, Radnor, PA) with FLIPR Penta (Molecular Devices. San Jose, CA) and incubated for 30 min. at room temperature. Ca^2+ release was measured with FLIPR Penta with 10 seconds basal fluorescence measurement, then 12.5 μL of 5× agonist Cortistatin-14 (Tocris, Minneapolis, MN) at final concentration corresponding to the EC80 were added followed with continued fluorescence signal monitoring for an additional 110 seconds. The base line adjusted (median of first 10s base line) max value of the Relative Fluorescence Unit (RFU) was plotted against compound concentrations. Wells with no compound were served as the positive controls, and wells with high concentration of reference antagonist were used as negative controls. IC50 curves were globally fitted with 3- or 4-parameter Hill equation in a Genedata Screener (Genedata Basel, Switzerland).

[2] = biological target: T1, MRGPRX2; experiment: MRGPRX2 IP1 HTRF assay; parameters: host or cells: CHO-K1; conditions: CHO-K1 cells stably expressing human MRGPRX2; IP1 accumulation, agonist Cortistatin 14 1 μM
[3] = biological target: T1, MRGPRX2; experiment: MRGPRX2 β-Arrestin assay; parameters: host or cells: PathHunter CHO-K1; conditions: PathHunter CHO-K1 MRGPRX2 β-Arrestin cell line; agonist Cortistatin 14 0.25 μM
Description: Example C: MRGPRX2 β-Arrestin Assay
This assay measures compound inhibition of β-Arrestin recruitment, which is part of the G protein-independent pathway that results from the ligand-activated GPCR phosphorylation by specific GPCR kinases. The PathHunter CHO-K1 MRPGRX2 B-Arrestin Cell line stably expressing ProLink tagged MRGPRX2 and Enzyme Acceptor Tagged B-Arrestin was purchased from Eurofins DiscoverX, (Fremont, CA).
The cells were maintained in culture medium from the Europhins DiscoverX Cell Culture Kit-107 which includes FBS, hygromycin B and G418. For the assay, the cells were harvested and were resuspended with Cell Plating Reagent 2 (Eurofins DiscoverX). Cells were added 10000 cells in 25 µL/well to a 384-well black cell culture plate (Greiner VWR, Radnor, PA) which contained 125 nL/well of compound at a selected serially diluted concentration range or DMSO. The plate was incubated at 37° C. with 5% CO2 for 1 h. 2 μL/well of agonist Cortistatin 14 was diluted in Protein Dilution Buffer, (Eurofins DiscoverX) for a final concentration of 0.25 μM, was added and the plate was incubated at 37° C. with 5% CO2 for 90 min. 14 μL/well of Detection Reagent Mix (PathHunter Detection Kit, Eurofins DiscoverX) was added to the plates and further incubated for 1 h in the dark. Plates were read on the PHERAstar microplate reader (BMG Labtech Cary, NC) measuring luminescence 0.1 to 1 second per well. Data was normalized using DMSO only wells and wells with high concentration of reference antagonist as controls. Compound IC50 curves were globally fitted with 3- or 4-parameter Hill equation in a Genedata Screener (Genedata Basel, Switzerland).

**Q.** Which results are given for NS(=O)(=O)N1CC(CNc2cc(C(F)(F)F)nc3ccc(C(F)(F)F)cc23)(c2ccc(F)cc2)C1 [Example 1, 3-(((2,6-Bis(trifluoromethyl)quinolin-4-yl)amino)methyl)-3-(4 fluorophenyl)azetidine-1-sulfonamide]?
**A.** pIC50 [1]: 7.00 to 10.00; pIC50 [2]: 7.00 to 10.00; pIC50 [3]: 7.00 to 10.00

**Q.** How did the pIC50 [1] turn out when Cc1ccc2nc(C(F)(F)F)cc(NCC3(c4ccc(F)cc4)CN(S(N)(=O)=O)C3)c2c1 [Example 2, 3-(4-Fluorophenyl)-3-(((6-methyl-2-(trifluoromethyl)quinolin-4-yl)amino)methyl)azetidine-1-sulfonamide] was run?
**A.** 7.00 to 10.00

**Q.** What about the pIC50 [2] of the same compound?
**A.** 7.00 to 10.00

**Q.** And the pIC50 [3]?
**A.** 7.00 to 10.00

**Q.** What does the source list for NS(=O)(=O)N1CC(CNc2cc(C(F)(F)F)nc3ccc(Br)cc23)(c2ccc(F)cc2)C1 [Example 3, 3-(((6-Bromo-2-(trifluoromethyl)quinolin-4-yl)amino)methyl)-3-(4-fluorophenyl)azetidine-1-sulfonamide]?
**A.** pIC50 [1]: 7.00 to 10.00; pIC50 [2]: 7.00 to 10.00; pIC50 [3]: 7.00 to 10.00

**Q.** How did the pIC50 [1] turn out when NS(=O)(=O)N1CC(CNc2cc(C(F)(F)C(F)(F)F)nc3ccc(Cl)cc23)(c2ccc(F)cc2)C1 [Example 4, 3-(((6-Chloro-2-(perfluoroethyl)quinolin-4-yl)amino)methyl)-3-(4-fluorophenyl)azetidine-1-sulfonamide] was run?
**A.** 7.00 to 10.00

**Q.** What about the pIC50 [2] of the same compound?
**A.** 7.00 to 10.00

**Q.** And the pIC50 [3]?
**A.** 7.00 to 10.00

**Q.** How did the pIC50 [1] turn out when NS(=O)(=O)N1CC(CNc2cc(C(F)F)nc3ccc(Cl)cc23)(c2ccc(F)cc2)C1 [Example 5, 3-(((6-Chloro-2-(difluoromethyl)quinolin-4-yl)amino)methyl)-3-(4-fluorophenyl)azetidine-1-sulfonamide] was run?
**A.** 7.00 to 10.00

**Q.** What about the pIC50 [2] of the same compound?
**A.** 7.00 to 10.00

**Q.** What about the pIC50 [3] of the same compound?
**A.** 7.00 to 10.00

**Q.** Which results are given for NC(=O)N1CC(CNc2cc(C(F)(F)F)nc3ccc(Br)cc23)(c2ccc(F)cn2)C1 [Example 6, 3-(((6-Bromo-2-(trifluoromethyl)quinolin-4-yl)amino)methyl)-3-(5-fluoropyridin-2-yl)azetidine-1-carboxamide]?
**A.** pIC50 [1]: 7.00 to 10.00; pIC50 [2]: 7.00 to 10.00; pIC50 [3]: 7.00 to 10.00

**Q.** N#CN=C(N)N1CC(CNc2cc(C(F)(F)F)nc3ccc(Cl)cc23)(c2ccc(F)cc2)C1 [Example 7, 3-(((6-Chloro-2-(trifluoromethyl)quinolin-4-yl)amino)methyl)-N′-cyano-3-(4-fluorophenyl)azetidine-1-carboximidamide] was tested. Which pIC50 [1] did it give?
**A.** 7.00 to 10.00

**Q.** And the pIC50 [2]?
**A.** 7.00 to 10.00

**Q.** What about the pIC50 [3] of the same compound?
**A.** 7.00 to 10.00

**Q.** What does the source list for O=C1CC(CNc2cc(C(F)(F)F)nc3ccc(Cl)cc23)(c2ccccc2)CN1 (stereo not shown) [Example 8, 4-(((6-Chloro-2-(trifluoromethyl)quinolin-4-yl)amino)methyl)-4-phenylpyrrolidin-2-one]?
**A.** pIC50 [1]: 7.00 to 10.00; pIC50 [2]: 7.00 to 10.00; pIC50 [3]: 7.00 to 10.00

**Q.** Which results are given for Nc1nc(N2CCC(CNc3cc(C(F)(F)F)nc4ccc(Cl)cc34)(c3ccccc3)CC2)nn1CCN1CCOCC1 [Example 79, N-((1-(5-Amino-1-(2-morpholinoethyl)-1H-1,2,4-triazol-3-yl)-4-phenylpiperidin-4-yl)methyl)-6-chloro-2-(trifluoromethyl)quinolin-4-amine]?
**A.** pIC50 [1]: 7.00 to 10.00; pIC50 [3]: 7.00 to 10.00

**Q.** NS(=O)(=O)N1CC(CNc2cc(C(F)(F)F)nc3ccc(Cl)cc23)(c2nc3cc(F)ccc3s2)C1 [Example 85, 3-(((6-Chloro-2-(trifluoromethyl)quinolin-4-yl)amino)methyl)-3-(5-fluorobenzo[d]thiazol-2-yl)azetidine-1-sulfonamide] was tested. Which pIC50 [1] did it give?
**A.** 7.00 to 10.00

**Q.** And the pIC50 [3]?
**A.** 7.00 to 10.00

**Q.** Which results are given for O=C(N[C@H]1CC[C@H](O)CC1)N1CC(CNc2cc(C(F)(F)F)nc3ccc(Cl)cc23)(n2cc(F)cn2)C1 [Example 88, 3-(((6-Chloro-2-(trifluoromethyl)quinolin-4-yl)amino)methyl)-3-(4-fluoro-1H-pyrazol-1-yl)-N-((1r,4r)-4-hydroxycyclohexyl)azetidine-1-carboxamide]?
**A.** pIC50 [2]: 7.00 to 10.00; pIC50 [3]: 7.00 to 10.00

**Q.** How did the pIC50 [2] turn out when C[C@]1(O)CC[C@@H](NC(=O)N2CC(CNc3cc(C(F)(F)F)nc4ccc(Cl)cc34)(n3cc(F)cn3)C2)CC1 [Example 89, 3-(((6-Chloro-2-(trifluoromethyl)quinolin-4-yl)amino)methyl)-3-(4-fluoro-1H-pyrazol-1-yl)-N-((1s,4s)-4-hydroxy-4-methylcyclohexyl)azetidine-1-carboxamide] was run?
**A.** 7.00 to 10.00

**Q.** What about the pIC50 [3] of the same compound?
**A.** 7.00 to 10.00

**Q.** O=C(N[C@@H]1CC[C@@H](O)C1)N1CC(CNc2cc(C(F)(F)F)nc3ccc(Cl)cc23)(c2ccc(F)cc2)C1 [Example 90, 3-(((6-Chloro-2-(trifluoromethyl)quinolin-4-yl)amino)methyl)-3-(4-fluorophenyl)-N-((1R,3R)-3-hydroxycyclopentyl)azetidine-1-carboxamide] was tested. Which pIC50 [2] did it give?
**A.** 7.00 to 10.00

**Q.** What about the pIC50 [3] of the same compound?
**A.** 7.00 to 10.00

**Q.** N#C[C@H]1CC[C@H](NC(=O)N2CC(CNc3cc(C(F)(F)F)nc4ccc(Cl)cc34)(c3ccc(F)cc3)C2)CC1 [Example 91, 3-(((6-Chloro-2-(trifluoromethyl)quinolin-4-yl)amino)methyl)-N-((1r,4r)-4-cyanocyclohexyl)-3-(4-fluorophenyl)azetidine-1-carboxamide] was tested. Which pIC50 [2] did it give?
**A.** 7.00 to 10.00

**Q.** And the pIC50 [3]?
**A.** 7.00 to 10.00

**Q.** Which results are given for Fc1ccc(C2(CNc3cc(C(F)(F)F)nc4ccc(Cl)cc34)CN(Cc3cn[nH]c3)C2)cc1 [Example 93, N-((1-((1H-Pyrazol-4-yl)methyl)-3-(4-fluorophenyl)azetidin-3-yl)methyl)-6-chloro-2-(trifluoromethyl)quinolin-4-amine]?
**A.** pIC50 [2]: 7.00 to 10.00; pIC50 [3]: 7.00 to 10.00

**Q.** With Cc1nc(CN2CC(CNc3cc(C(F)(F)F)nc4ccc(Cl)cc34)(c3ccc(F)cc3)C2)c[nH]1 [Example 94, 6-Chloro-N-((3-(4-fluorophenyl)-1-((2-methyl-1H-imidazol-4-yl)methyl)azetidin-3-yl)methyl)-2-(trifluoromethyl)quinolin-4-amine] as the compound, how does the pIC50 [2] read?
**A.** 7.00 to 10.00

**Q.** What about the pIC50 [3] of the same compound?
**A.** 7.00 to 10.00

**Q.** What does the source list for [O-][n+]1ccc(CN2CC(CNc3cc(C(F)(F)F)nc4ccc(Cl)cc34)(c3ccc(F)cc3)C2)cc1 [Example 95, 4-((3-(((6-Chloro-2-(trifluoromethyl)quinolin-4-yl)amino)methyl)-3-(4-fluorophenyl)azetidin-1-yl)methyl)pyridine 1-oxide]?
**A.** pIC50 [2]: 7.00 to 10.00; pIC50 [3]: 7.00 to 10.00

**Q.** Which results are given for NC1CC(CNc2cc(C(F)(F)F)nc3ccc(Cl)cc23)(c2ccccc2)C1 (stereo not shown) [Example 96, N-((3-Amino-1-phenylcyclobutyl)methyl)-6-chloro-2-(trifluoromethyl)quinolin-4-amine]?
**A.** pIC50 [2]: 7.00 to 10.00; pIC50 [3]: 7.00 to 10.00

**Q.** With [2H]C([2H])([2H])NC(=O)N1CC(CNc2cc(C(F)(F)F)nc3ccc(Br)cc23)(n2cc(F)cn2)C1 [Example 97, 3-(((6-Bromo-2-(trifluoromethyl)quinolin-4-yl)amino)methyl)-3-(4-fluoro-1H-pyrazol-1-yl)-N-(methyl-d3)azetidine-1-carboxamide] as the compound, how does the pIC50 [2] read?
**A.** 7.00 to 10.00

**Q.** What about the pIC50 [3] of the same compound?
**A.** 7.00 to 10.00
